This note sets out measurements from patent US20120328569A1, “INHIBITORS OF HEPATITIS C VIRUS NS5B POLYMERASE” (priority 2010, published 2012).

The assay concerns HCV genotype 1b replicon. In words: HCV replicon assay, cell ELISA with antibody to replicon-encoded NS3/4A (genotype 1b replicon). Type of assay: cell-based, hepatitis C virus. The settings on record: Hepatitis C virus, 96 h, read-out: Replicon 1b IC50 (nM), HCV genotype 1b replicon cells, 96 hours incubation, NS3/4A ELISA readout. The method in brief:
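An ELISA on lysed cells, using an antibody against NS3/4A protease, served as the proxy for replicon RNA. Cells had first been exposed for 96 h to serially diluted compound in G418-free conditions. Percent of DMSO control was fitted with a four-parameter function to give IC50.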
With `CNC(=O)c1c(-c2ccc(F)cc2)oc2cc(N(C)S(C)(=O)=O)c(-c3cc(OC)cc(-c4nc5cccnc5[nH]4)c3)cc12` [Example 314], the IC50 worked out at 1.5 nM.
`CNC(=O)c1c(-c2ccc(F)cc2)oc2cc(N(C)S(C)(=O)=O)c(-c3cc(OC)cc(-c4nc5ccc(OC)nc5[nH]4)c3)cc12` [Example 315]: the IC50 stood at 4.5 nM.
Turning to `CNC(=O)c1c(-c2ccc(F)cc2)oc2cc(N(C)S(C)(=O)=O)c(-c3cc(OC)cc(-c4nc5c(C)ccnc5[nH]4)c3)cc12` [Example 316], the IC50 came to 2.8 nM.
Regarding `CNC(=O)c1c(-c2ccc(F)cc2)oc2cc(N(C)S(C)(=O)=O)c(-c3cc(OC)cc(-c4nc5cc(Cl)cnc5[nH]4)c3)cc12` [Example 317], the IC50 was determined as 2.9 nM.
As to `CNC(=O)c1c(-c2ccc(F)cc2)oc2cc(N(C)S(C)(=O)=O)c(-c3cccc(-c4nc5c(C)ccnc5[nH]4)c3O)cc12` [Example 318], the IC50 is 18.7 nM.
Under `CNC(=O)c1c(-c2ccc(F)cc2)oc2cc(N(C)S(C)(=O)=O)c(-c3ccc(Cl)c(-c4nc5cccnc5[nH]4)c3)cc12` [Example 319] stands 13.6 nM.
Regarding `CNC(=O)c1c(-c2ccc(F)cc2)oc2cc(N(C)S(C)(=O)=O)c(-c3ccc(Cl)c(-c4nc5ccc(OC)nc5[nH]4)c3)cc12` [Example 320], the IC50 turned out to be 13.1 nM.
The value for `CNC(=O)c1c(-c2ccc(F)cc2)oc2cc(N(C)S(C)(=O)=O)c(-c3ccc(Cl)c(-c4nc5c(C)ccnc5[nH]4)c3)cc12` [Example 321] was 6.6 nM; that for `CNC(=O)c1c(-c2ccc(F)cc2)oc2cc(N(C)S(C)(=O)=O)c(-c3ccc(Cl)c(-c4nc5cc(Cl)cnc5[nH]4)c3)cc12` [Example 322] was 19.5 nM.
As for `CNC(=O)c1c(-c2ccc(F)cc2)oc2cc(N(C)S(C)(=O)=O)c(-c3cc(C#N)cc(-c4nc5cccnc5[nH]4)c3)cc12` [Example 323], the IC50 came out at 2.4 nM.
Take `CNC(=O)c1c(-c2ccc(F)cc2)oc2cc(N(C)S(C)(=O)=O)c(-c3cc(C#N)cc(-c4nc5ccc(OC)nc5[nH]4)c3)cc12` [Example 324]: the IC50 stood at 3.5 nM.
On to `CNC(=O)c1c(-c2ccc(F)cc2)oc2cc(N(C)S(C)(=O)=O)c(-c3cc(C#N)cc(-c4nc5c(C)ccnc5[nH]4)c3)cc12` [Example 325], for which the IC50 worked out at 3.2 nM.
For the molecule `CNC(=O)c1c(-c2ccc(F)cc2)oc2cc(N(C)S(C)(=O)=O)c(-c3cccc(-c4nc5ccc(OC)nc5[nH]4)c3)cc12` [Example 327], the IC50 was 3.8 nM.
Under `CNC(=O)c1c(-c2ccc(F)cc2)oc2cc(N(C)S(C)(=O)=O)c(-c3cccc(-c4nc5ccc(=O)[nH]c5[nH]4)c3)cc12` [Example 328] stands 13.5 nM; under `CNC(=O)c1c(-c2ccc(F)cc2)oc2cc(N(C)S(C)(=O)=O)c(-c3cccc(-c4nc5ccc(OS(C)(=O)=O)nc5[nH]4)c3)cc12` [Example 329], 4.9 nM.
Consider `CNC(=O)c1c(-c2ccc(F)cc2)oc2cc(N(C)S(C)(=O)=O)c(-c3cccc(-c4nc5c(C)ccnc5[nH]4)c3)cc12` [Example 330], for which the IC50 is 2.7 nM.
As to `CNC(=O)c1c(-c2ccc(F)cc2)oc2cc(N(C)S(C)(=O)=O)c(-c3cccc(-c4nc5cc(Cl)cnc5[nH]4)c3)cc12` [Example 331], the IC50 is 1.8 nM.
Turning to `CNC(=O)c1c(-c2ccc(F)cc2)oc2cc(N(C)S(C)(=O)=O)c(-c3cccc(-c4nc5ccccc5n4C)c3)cc12` [Example 332], the IC50 stood at 9.6 nM.
For the molecule `CNC(=O)c1c(-c2ccc(F)cc2)oc2cc(N(C)S(C)(=O)=O)c(-c3cccc(-c4nc5ccncc5[nH]4)c3)cc12` [Example 333], the IC50 was determined as 6 nM.
Turning to `CNC(=O)c1c(-c2ccc(F)cc2)oc2cc(N(C)S(C)(=O)=O)c(-c3ccc(F)c(-c4nc5ccncc5[nH]4)c3)cc12` [Example 334], the IC50 turned out to be 3.3 nM.
Regarding `CNC(=O)c1c(-c2ccc(F)cc2)oc2cc(N(C)S(C)(=O)=O)c(-c3cc(-c4nc5ccncc5[nH]4)ccc3F)cc12` [Example 335], the IC50 is 26.4 nM.
The value for `CNC(=O)c1c(-c2ccc(F)cc2)oc2cc(N(C)S(C)(=O)=O)c(-c3cccc(-c4nc5nccnc5[nH]4)c3)cc12` [Example 336] was 2.7 nM.
For `CNC(=O)c1c(-c2ccc(F)cc2)oc2cc(N(C)S(C)(=O)=O)c(-c3ccc(F)c(-c4nc5nccnc5[nH]4)c3)cc12` [Example 337], the IC50 is 7.8 nM.
For `CNC(=O)c1c(-c2ccc(F)cc2)oc2cc(N(C)S(C)(=O)=O)c(-c3ccc(OC)c(-c4nc5nccnc5[nH]4)c3)cc12` [Example 338], the IC50 turned out to be 1.5 nM.
`CNC(=O)c1c(-c2ccc(F)cc2)oc2cc(N(C)S(C)(=O)=O)c(-c3cc(OC)cc(-c4nc5nccnc5[nH]4)c3)cc12` [Example 339]: the IC50 stood at 4 nM.
`CNC(=O)c1c(-c2ccc(F)cc2)oc2cc(N(C)S(C)(=O)=O)c(-c3ccc(Cl)c(-c4nc5nccnc5[nH]4)c3)cc12` [Example 340]: the IC50 is 15.8 nM.
Regarding `CNC(=O)c1c(-c2ccc(F)cc2)oc2cc(N(C)S(C)(=O)=O)c(-c3cccc(-c4nc5cncnc5[nH]4)c3)cc12` [Example 341], the IC50 stood at 14.6 nM.
With `CNC(=O)c1c(-c2ccc(F)cc2)oc2cc(N(C)S(C)(=O)=O)c(-c3ccc(F)c(-c4nc5cncnc5[nH]4)c3)cc12` [Example 342], the IC50 came out at 5.1 nM.
For the molecule `CNC(=O)c1c(-c2ccc(F)cc2)oc2cc(N(C)S(C)(=O)=O)c(-c3ccc(OC)c(-c4nc5cncnc5[nH]4)c3)cc12` [Example 344], the IC50 is 2.2 nM.
As to `CNC(=O)c1c(-c2ccc(F)cc2)oc2cc(N(C)S(C)(=O)=O)c(-c3cc(OC)cc(-c4nc5cncnc5[nH]4)c3)cc12` [Example 345], the IC50 came out at 2.1 nM.
`CNC(=O)c1c(-c2ccc(F)cc2)oc2cc(N(C)S(C)(=O)=O)c(-c3cccc(-c4nc5cncnc5[nH]4)c3O)cc12` [Example 346]: the IC50 stood at 165 nM.
As to `CNC(=O)c1c(-c2ccc(F)cc2)oc2cc(N(C)S(C)(=O)=O)c(-c3ccc(Cl)c(-c4nc5cncnc5[nH]4)c3)cc12` [Example 347], the IC50 was 8.1 nM.
For the molecule `CNC(=O)c1c(-c2ccc(F)cc2)oc2cc(N(C)S(C)(=O)=O)c(-c3cc(C#N)cc(-c4nc5cncnc5[nH]4)c3)cc12` [Example 348], the IC50 came to 72.7 nM.
Take `CNC(=O)c1c(-c2ccc(F)cc2)oc2cc(N(C)S(C)(=O)=O)c(-c3ccc(OC)c(-c4nc5c(N)ncnc5[nH]4)c3)cc12` [Example 349]: the IC50 was determined as 5.7 nM.
Consider `CNC(=O)c1c(-c2ccc(F)cc2)oc2cc(N(C)S(C)(=O)=O)c(-c3cc(F)cc(-c4nc5c(N)ncnc5[nH]4)c3)cc12` [Example 350], for which the IC50 came to 0.7 nM.
The value for `CNC(=O)c1c(-c2ccc(F)cc2)oc2cc(N(C)S(C)(=O)=O)c(-c3cccc(-c4ccc5cccnc5c4)c3)cc12` [Example 353] was 4.2 nM; that for `CNC(=O)c1c(-c2ccc(F)cc2)oc2cc(N(C)S(C)(=O)=O)c(-c3cccc(-c4cc5ccc(OC)cc5[nH]4)c3)cc12` [Example 356] was 5.9 nM; that for `CNC(=O)c1c(-c2ccc(F)cc2)oc2cc(N(C)S(C)(=O)=O)c(-c3cccc(-c4cc5ccc(OCc6ccccc6)cc5[nH]4)c3)cc12` [Example 360] was 30.5 nM.
The value for `CNC(=O)c1c(-c2ccc(F)cc2)oc2cc(N(C)S(C)(=O)=O)c(-c3cccc(-c4cc5ccccc5[nH]4)c3)cc12` [Example 366, 5-(3-(1H-indol-2-yl)phenyl)-2-(4-fluorophenyl)-N-methyl-6-(N-methylmethylsulfonamido)benzofuran-3-carboxamide] was 4.2 nM.
The value for `CNC(=O)c1c(-c2ccc(F)cc2)oc2cc(N(C)S(C)(=O)=O)c(-c3cccc(-c4[nH]c5ccccc5c4Cl)c3)cc12` [Example 381] was 5.1 nM.
As to `CNC(=O)c1c(-c2ccc(F)cc2)oc2cc(N(C)S(C)(=O)=O)c(-c3cccc(-c4[nH]c5ccccc5c4Br)c3)cc12` [Example 382, 5-(3-(3-bromo-1H-indol-2-yl)phenyl)-2-(4-fluorophenyl)-N-methyl-6-(N-methylmethylsulfonamido)benzofuran-3-carboxamide], the IC50 worked out at 8.9 nM.
Under `CNC(=O)c1c(-c2ccc(F)cc2)oc2cc(N(C)S(C)(=O)=O)c(-c3cccc(-c4[nH]c5ncccc5c4CO)c3)cc12` [Example 383, 2-(4-fluorophenyl)-5-(3-(3-(hydroxymethyl)-1H-pyrrolo[2,3-b]pyridin-2-yl)phenyl)-N-methyl-6-(N-methylmethylsulfonamido)benzofuran-3-carboxamide] stands 2.5 nM; under `CNC(=O)c1c(-c2ccc(F)cc2)oc2cc(N(CCCO)S(C)(=O)=O)c(-c3cccc(-c4nc5ncccc5o4)c3)cc12` [Example 384, 2-(4-fluorophenyl)-6-(N-(3-hydroxypropyl)methylsulfonamido)-N-methyl-5-(3-(oxazolo[4,5-b]pyridin-2-yl)phenyl)benzofuran-3-carboxamide], 0.9 nM.
With `CNC(=O)c1c(-c2ccc(F)cc2)oc2cc(N(CCN3CCOCC3)S(C)(=O)=O)c(-c3cccc(-c4nc5ncccc5o4)c3)cc12` [Example 397, 2-(4-fluorophenyl)-N-methyl-6-(N-(2-morpholinoethyl)methylsulfonamido)-5-(3-(oxazolo[4,5-b]pyridin-2-yl)phenyl)benzofuran-3-carboxamide], the IC50 amounted to 3.6 nM.
Under `CNC(=O)c1c(-c2ccc(F)cc2)oc2cc(N(C)S(=O)(=O)c3ccccc3)c(-c3cccc(-c4nc5ncccc5o4)c3)cc12` [Example 400, 2-(4-fluorophenyl)-N-methyl-6-(N-methylphenylsulfonamido)-5(3-(oxazolo[4,5-b]pyridin-2-yl)phenyl)benzofuran-3-carboxamide] stands 303 nM; under `CNC(=O)c1c(-c2ccc(F)cc2)oc2cc(N(C)S(C)(=O)=O)c(-c3ccc(OC)c(-c4nc5c(F)cccc5o4)c3)cc12` [Example 402, 5-(3-(4-fluorobenzo[d]oxazol-2-yl)-4-methoxyphenyl)-2-(4-fluorophenyl)-N-methyl-6-(N-methylmethylsulfonamido)benzofuran-3-carboxamide], 0.9 nM.
